The conditions of series [1]: cited from earlier work.
A further series deals with VCAP. Kind of series: CellTiter-Glo chemiluminescent cell viability assay (CTG method), VCAP. To be noted: VCAP cells, 72 h; for pIC50: read-out: Absolute IC50. The series is classed as cell-based. How it is done:
(§1) Half-maximal inhibitory concentrations (IC50) of abiraterone acetate and LHY-AB614 for proliferation of LNCAP clone FGC and VCAP were assessed by a CellTiter-Glo® chemiluminescent cell viability assay (namely, a CTG method). Cells in an exponential phase were collected, and live cells were counted. Each cell suspension was adjusted with a corresponding medium to an appropriate concentration. 90 μL of a cell suspension was added to each well of a 96-well plate and cultivated in a 37° C. and 5% CO2 incubator for 24 h. A sample to be tested was dissolved in DMSO to prepare a stock solution with a starting concentration of 50 μM, and the stock solution was 3-fold diluted with a medium to obtain 10× working solutions with 9 concentrations. Cisplatin, as a reference compound, was dissolved in DMSO to prepare a stock solution with a starting concentration of 100 μM, and the stock solution was 3-fold diluted with a medium to obtain 10× working solutions with 9 concentrations. 10 μL of a working solution was added to cells in each well, and then the cells were cultivated in a 37° C. and 5% CO2 incubator for 72 h. The 96-well plate was equilibrated at room temperature for about 30 min, then 50 μL of a CTG solution was added to each well, and the 96-well plate was shaken on a microplate shaker for 2 min to perform cell lysis and placed at room temperature for 20 min to stabilize a fluorescence signal. A fluorescence signal value was determined with an Envision2104 plate reader. On the GraphPad Prism software, a nonlinear regression model was used to plot an S-type dose-response curve and calculate an IC50 value.

A short description of series [2]: Solubility test in normal saline. It is filed as physicochemical. Particulars: saline or isotonic, thermodynamic from solid. How it is done: 200 mg of LHY-AB614-622 was weighed, and 1 mL of normal saline was added.
2 mg of abiraterone acetate was weighed and dissolved in 1 mL of normal saline, a resulting solution was stirred overnight and then subjected to suction filtration, and a resulting filtrate was subjected to HPLC analysis. Abiraterone acetate was dissolved in methanol to prepare a 0.1 mg/mL solution as a control.

Series [3] can be described thus: Comparative study of pharmacokinetic properties in Beagle dogs (oral). It is filed as in vivo. How it is done:
Four healthy Beagle dogs with body weights in a range of 6 kg to 8 kg were selected. The Beagle dogs were fasted for 12 h the day before an experiment, and all were given a low-fat standard meal after administration. The Beagle dogs should not be administered with other drugs two weeks before the experiment and during the experiment. The four Beagle dogs were randomly divided into a group A and a group B (2 dogs in each group). LHY-AB614 was administered orally at a dose of 46.8 mg/kg (32.2 mg/kg based on abiraterone), and abiraterone acetate was administered orally at a dose of 42.3 mg/kg (37.8 mg/kg based on abiraterone). Blank blood was collected in an EDTA-K2 anticoagulation tube before administration, and at 0.25 h, 0.5 h, 1.0 h, 2.0 h, 4.0 h, 6.0 h, 8.0 h, and 24.0 h after administration, 1 mL of blood was collected in EDTA-K2 anticoagulation tubes. After blood was fully mixed with an anticoagulant, each of the anticoagulation tubes was immediately placed in ice and centrifuged as soon as possible to isolate plasma, and the isolated plasma was stored in labeled EP tubes. 50 μL of a plasma sample was taken, 300 μL of a 10 ng/mL carbamazepine-containing acetonitrile solution was added for protein precipitation, and a resulting mixture was vortexed for 5 min and then centrifuged in a centrifuge at 5,500 g for 10 min; and 100 μL of a resulting supernatant was taken, 300 μL of 50%-methanol water was added for dilution, a resulting dilution was vortexed, and 5 μL of a vortexed dilution was injected. In vivo drug concentrations of LHY-AB614, abiraterone acetate, and abiraterone were determined by HPLC-MS/MS.

A further series has as its system LNCAP clone FGC. As to the kind of experiment: CellTiter-Glo chemiluminescent cell viability assay (CTG method), LNCAP. It is filed as cell-based. Particulars: LNCAP cells, 72 h; for pIC50: read-out: Absolute IC50. How it is done: as §1
Background: Cellular ATP, detected with luciferase, serves as a proxy for viable cell number.

[4] abbreviates: Beagle, dog, in vivo, po, 46.8 mg/kg.

pIC50: −log10 of the molar value. Like-named read-outs stand apart in the source and are kept apart here. Some results are limits rather than exact numbers.

On to `CC(=O)O[C@H]1CC[C@@]2(C)C(=CC[C@@H]3[C@@H]2CC[C@]2(C)C(c4cccnc4)=CC[C@@H]32)C1` [Abiraterone acetate, abiraterone acetate], for which the death risk reduced in series [1] (combination with prednisone versus placebo and prednisone) was 35%. For the same compound, the “median survival time prolonged versus placebo and prednisone” value in series [1] (combination with prednisone, p<0.0001) was 3.9 months. Also, in series [1] (patient treated with a combination of abiraterone acetate and prednisone), the median survival time is recorded as 14.8 months. The pIC50 is less than 4.30 with VCAP (Homo sapiens) and 4.81 in the series with LNCAP clone FGC (Homo sapiens, LNCaP-Clone-FGC). Moreover, the Max inhibition in the series on VCAP worked out at 29.43%; in the series on LNCAP clone FGC, 78.30%. The compound further had a solubility in series [2] of less than 100 µg/mL. Moreover, in series [3] (oral, Beagle dogs, plasma, HPLC-MS/MS), the “species detected in vivo after administration” value was “Only abiraterone is detected in vivo”.
In the case of `CN(C)CCOCCOC(=O)O[C@H]1CC[C@@]2(C)C(=CC[C@@H]3[C@@H]2CC[C@]2(C)C(c4cccnc4)=CC[C@@H]32)C1` [LHY-AB614], the pIC50 with VCAP (Homo sapiens) is 5.24. Further, the “species detected in vivo after administration” value in series [3] (Beagle, dog, in vivo, po) was “LHY-AB614 and abiraterone both can be detected in vivo”. In series [3] (setting [4]), this compound gave an AUC0-inf of 6186 ng·h/mL, an AUC0-t of 6116 ng·h/mL, a total exposure AUC(0-inf) of 1060 ng·h/mL and an AUC(0-t) of 908 ng·h/mL. Moreover, in series [3] (setting [4]), the “Cls, app” value was 757; the T1/2 is 3.7 h; the Tmax was determined as 1.5 h; the half-life is 6.8 h. In addition, in series [3] (dog, in vivo, po), the “AUC compared with the administration of abiraterone acetate” value is on record as “significantly increases”, the “Cmax of abiraterone compared with Cmax of LHY-AB614” value was “much higher”, the “Cmax of abiraterone compared with the administration of abiraterone acetate” value was “significantly increases” and the “Tmax compared with the administration of abiraterone acetate” value is reported as “does not change”. The pIC50 in the series on LNCAP clone FGC (Homo sapiens, LNCaP-Clone-FGC) is 5.49.
In the case of `CN(C)CCOCCOC(=O)O[C@H]1CC[C@@]2(C)C(=CC[C@@H]3[C@@H]2CC[C@]2(C)C(c4cccnc4)=CC[C@@H]32)C1` [Compound represented by formula I], the pIC50 in the series with VCAP (Homo sapiens) was 5.24; in the series with LNCAP clone FGC (Homo sapiens, LNCaP-Clone-FGC) it was 5.49. The Max inhibition in the series on VCAP was 99.31%; in the series with LNCAP clone FGC, 99.49%.
`N.N.[Cl][Pt][Cl]` [Cisplatin]: in the series with VCAP, the Max inhibition was 85.02% and the pIC50 is 4.39. Also, in the series on LNCAP clone FGC, the Max inhibition was determined as 97.49% and the pIC50 is 4.89.

A word on the pIC50: it is the negative decadic logarithm of the IC50, by convention in mol/L. As a reminder, the solubility is how much of the substance goes into solution per volume. As usually defined, the AUC(0-inf) is total exposure, with the tail of the curve extrapolated. A low value points to less exposure. The AUC(0-t) is the area under the concentration-time curve up to a stated or last time point. Lower therefore signals less exposure. Broadly, the Tmax is the time from dosing to the highest level. As usually defined, the half-life is the time needed for the level to fall by half in the phase considered. Read a low half-life as fast loss.

The record behind these values is patent publication US12428443B2, “Abiraterone precursor compound and preparation method and use thereof” (SUZHOU AIHE PHARMACEUTICAL TECHNOLOGY CO., LTD., priority 2021, dated 2025).
